Tested on: patients with metastatic breast cancer
Settings: DPPE pretreatment
Experimental: In the specific Phase II clinical trial described herein, there was employed 6 mg/kg of DPPE in the form of its hydrochloride salt, administered intravenously as an aqueous solution thereof over 80 minutes, with the last 20 minutes being accompanied by infusion of the chemotherapeutic agents doxorubicin or epirubicin in combination with Taxol or Taxotere followed by the intravenous administration of an aqueous solution at a dose of 2.5 mg/kg of DPPE for 180 minutes accompanied by the infusion of Taxol or for 60 minutes accompanied by the infusion of Taxotere.
In the specific Phase II clinical trial described herein, there was employed 50 mg/M^2 of doxorubicin/epirubicin and either 175 mg/^2 Taxol or 75 mg/M^2 Taxotere administered over the last 20 minutes of infusion of the DPPE solution and over a further 180 minutes for Taxol or 60 minutes for Taxotere, accompanied by infusion of a 2.5 mg/kg of DPPE solution.
29 patients with metastatic breast cancer were treated with a combination of DPPE and epirubicin/Taxol (N=22), DPPE and doxorubicin/Taxol (N=6) or a combination of DPPE and epirubicin/Taxotere (N=1). […]

Compound: CCN(CC)CCOc1ccc(Cc2ccccc2)cc1 [DPPE, N,N-diethyl-2-[4-(phenylmethyl)-phenoxy]ethanamine]
- TTP in comparison to patients not receiving DPPE treatment: did not improve
- overall survival of patients receiving DPPE (compared with published studies): significantly improved

From patent publication US20060089317A1, “Treatment of metastatic breast cancer with anthracyclines, and taxanes” (The University Of Manitoba, priority 2002, published 2006)
